Source: ChEMBL document CHEMBL3603747, “Discovery, design, and synthesis of indole-based EZH2 inhibitors” (Bioorg Med Chem Lett, 2015)

Assays:
Type in all cases: ADME, organism-based
[1] = AUC in CB17 SCID mouse at 1 mg/kg, iv by LC-MS method; details: in vivo
[2] = Cmax in CB17 SCID mouse at 200 mg/kg, sc by LC-MS method; design: dose 200 mg/kg, route subcutaneous; details: in vivo
[3] = AUC in CB17 SCID mouse at 200 mg/kg, sc by LC-MS method; details: in vivo
[4] = Volume of distribution at steady state in CB17 SCID mouse at 1 mg/kg, iv by LC-MS method; details: in vivo, read-out: Vdss

## CCS(=O)(=O)N1CCC([C@@H](C)n2c(C)c(C(=O)NCc3c(OC)cc(C)[nH]c3=O)c3ccccc32)CC1
[1]
  AUC: 362 ng·h/mL
[2]
  Cmax: 9150 ng/mL
[3]
  AUC: 51000 ng·h/mL
[4]
  Vd: 0.795 L/kg
